Results: ChEMBL document CHEMBL1909046, “DrugMatrix in vitro pharmacology data”

What was measured:
Melanocortin receptor 4 = Melanocortin receptor 4 (Homo sapiens, UniProt P32245); format: cell membranes, Membrane; conditions: hek293; also: in other assays of this panel Not Active means under 50% inhibition at 10 µM
[1] = DRUGMATRIX: ATPase, Na+/K+ enzyme inhibition (substrate: ATP); format: tissue-based, Sus scrofa, Heart; conditions: Not Active = under 50% inhibition at 10 µM
[2] = biological target: T1, Cysteinyl leukotriene receptor 1 (Homo sapiens, UniProt Q9Y271); format: cell membranes, Membrane; conditions: cho-k1; also: in other assays of this panel Not Active means under 50% inhibition at 10 µM
T1 sequence (Q9Y271 whole entry): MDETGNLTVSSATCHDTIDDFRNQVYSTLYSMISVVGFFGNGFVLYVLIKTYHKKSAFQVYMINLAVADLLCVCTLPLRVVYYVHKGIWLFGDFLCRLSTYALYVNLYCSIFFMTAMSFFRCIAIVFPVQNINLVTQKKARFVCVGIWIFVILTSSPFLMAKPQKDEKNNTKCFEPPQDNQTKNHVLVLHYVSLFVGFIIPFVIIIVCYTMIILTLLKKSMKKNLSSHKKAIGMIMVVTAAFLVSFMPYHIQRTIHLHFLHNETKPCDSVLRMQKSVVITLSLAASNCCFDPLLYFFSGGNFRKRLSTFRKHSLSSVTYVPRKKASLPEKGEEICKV

[3] = biological target: Mitogen-activated protein kinase 1 (Homo sapiens, UniProt P28482); assay: DRUGMATRIX: Protein Serine/Threonine Kinase, ERK2 enzyme inhibition (substrate: Myelin Basic Protein); set-up: species or system Escherichia coli; conditions: Not Active = under 50% inhibition at 10 µM
[4] = DRUGMATRIX: Imidazoline I2, Central radioligand binding (ligand: [3H] Idazoxan); format: cell membranes, Rattus norvegicus, Wistar, Cerebral cortex, Membrane; conditions: Not Active = under 50% inhibition at 10 µM
[5] = DRUGMATRIX: Glutamate, NMDA, Agonism radioligand binding (ligand: [3H] CGP-39653); format: cell membranes, Rattus norvegicus, Wistar, Cerebral cortex, Membrane; conditions: Not Active = under 50% inhibition at 10 µM
Caspase-1 = biological target: T2, Caspase-1 (Homo sapiens, UniProt P29466); set-up: species or system Escherichia coli;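 also: Caspase-1 enzyme inhibition assay with a peptide substrate; in other assays of this panel Not Active means under 50% inhibition at 10 µM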
T2 sequence (P29466 whole entry): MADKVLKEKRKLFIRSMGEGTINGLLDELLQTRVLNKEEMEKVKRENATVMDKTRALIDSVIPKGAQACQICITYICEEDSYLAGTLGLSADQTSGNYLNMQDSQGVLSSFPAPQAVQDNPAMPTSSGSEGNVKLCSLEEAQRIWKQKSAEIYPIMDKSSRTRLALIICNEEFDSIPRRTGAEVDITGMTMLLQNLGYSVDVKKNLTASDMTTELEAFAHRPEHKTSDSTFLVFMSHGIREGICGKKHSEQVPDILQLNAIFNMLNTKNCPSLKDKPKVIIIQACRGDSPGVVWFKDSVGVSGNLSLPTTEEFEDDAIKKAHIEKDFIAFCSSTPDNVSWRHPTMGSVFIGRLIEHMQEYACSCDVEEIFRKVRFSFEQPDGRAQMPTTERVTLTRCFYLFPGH

[6] = DRUGMATRIX: Platelet-Derived Growth Factor (PDGF) radioligand binding (ligand: [125I] PDGF); format: cell-based; conditions: nih3t3; Not Active = under 50% inhibition at 10 µM

Sequence of Mitogen-activated protein kinase 1 (P28482 whole entry): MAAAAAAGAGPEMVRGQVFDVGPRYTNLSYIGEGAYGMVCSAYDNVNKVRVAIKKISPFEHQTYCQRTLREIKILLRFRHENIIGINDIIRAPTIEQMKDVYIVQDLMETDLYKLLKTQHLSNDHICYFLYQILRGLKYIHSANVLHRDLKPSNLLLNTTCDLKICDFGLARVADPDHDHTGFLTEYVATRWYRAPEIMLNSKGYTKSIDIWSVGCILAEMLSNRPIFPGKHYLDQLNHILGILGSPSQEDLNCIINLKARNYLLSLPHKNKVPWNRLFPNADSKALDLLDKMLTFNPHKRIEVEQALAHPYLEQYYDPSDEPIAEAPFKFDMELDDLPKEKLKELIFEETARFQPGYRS
Sequence of Melanocortin receptor 4 (P32245 whole entry): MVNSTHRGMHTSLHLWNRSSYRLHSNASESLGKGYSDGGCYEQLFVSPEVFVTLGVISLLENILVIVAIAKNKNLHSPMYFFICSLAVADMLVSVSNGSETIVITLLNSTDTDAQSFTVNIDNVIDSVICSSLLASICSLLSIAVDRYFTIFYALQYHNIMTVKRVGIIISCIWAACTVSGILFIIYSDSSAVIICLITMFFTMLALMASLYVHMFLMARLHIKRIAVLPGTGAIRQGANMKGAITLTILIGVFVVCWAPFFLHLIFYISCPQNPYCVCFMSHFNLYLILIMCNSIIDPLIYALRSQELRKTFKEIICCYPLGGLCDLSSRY

SMILES	IC50 (Melanocortin receptor 4)	IC50 [1]	Ki [1]	IC50 [2]	IC50 [3]	IC50 [4]	Ki [4]	IC50 [5]	Ki [5]	IC50 (Caspase-1)	IC50 [6]	Ki [6]	IC50 ([4]; read-out: IC50) [µM]	Ki ([4]; read-out: Ki) [µM]
CC(C(=O)O)c1ccc(-c2ccccc2)c(F)c1 (configuration not stated) [FLURBIPROFEN]	Not Active	Not Active	Not Active	Not Active	Not Active	Not Active	Not Active	Not Active	Not Active	Not Active	Not Active	Not Active	–	–
Cc1cn[nH]c1 [FOMEPIZOLE]	Not Active	Not Active	Not Active	Not Active	Not Active	Not Active	Not Active	Not Active	Not Active	Not Active	Not Active	Not Active	–	–
NC[C@@H]1O[C@H](O[C@H]2[C@@H](O)[C@H](O[C@@H]3[C@@H](O)[C@H](N)C[C@H](N)[C@H]3O[C@H]3O[C@H](CN)[C@@H](O)[C@H](O)[C@H]3N)O[C@@H]2CO)[C@H](N)[C@@H](O)[C@@H]1O [FRAMYCETIN]	Not Active	Not Active	Not Active	Not Active	Not Active	Not Active	Not Active	Not Active	Not Active	Not Active	Not Active	Not Active	–	–
C[C@H]([C@](O)(Cn1cncn1)c1ccc(F)cc1F)S(C)(=O)=O [GENACONAZOLE]	Not Active	Not Active	Not Active	Not Active	Not Active	Not Active	Not Active	Not Active	Not Active	Not Active	Not Active	Not Active	–	–
Cc1c(F)c(N2CCNC(C)C2)cc2c1c(=O)c(C(=O)O)cn2C1CC1 (configuration not stated) [GREPAFLOXACIN]	Not Active	Not Active	Not Active	Not Active	Not Active	Not Active	Not Active	Not Active	Not Active	Not Active	Not Active	Not Active	–	–
COc1ccccc1OCC(O)CO (configuration not stated) [GUAIFENESIN]	Not Active	Not Active	Not Active	Not Active	Not Active	Not Active	Not Active	Not Active	Not Active	Not Active	Not Active	Not Active	–	–
N=C(N)N/N=C/c1c(Cl)cccc1Cl [GUANABENZ]	Not Active	Not Active	Not Active	Not Active	Not Active	–	–	Not Active	Not Active	Not Active	Not Active	Not Active	0.018	0.012
C[C@]12CCC(=O)C=C1CC[C@@H]1[C@@H]2[C@@H](O)C[C@@]2(C)[C@H]1CC[C@]2(O)C(=O)CO [HYDROCORTISONE]	Not Active	Not Active	Not Active	Not Active	Not Active	Not Active	Not Active	Not Active	Not Active	Not Active	Not Active	Not Active	–	–
C/C=C\c1ccc(O)c(OC)c1 [ISOEUGENOL]	Not Active	Not Active	Not Active	Not Active	Not Active	Not Active	Not Active	Not Active	Not Active	Not Active	Not Active	Not Active	–	–
NC[C@H]1O[C@H](O[C@H]2[C@H](O)[C@@H](O[C@H]3O[C@H](CO)[C@@H](O)[C@H](N)[C@H]3O)[C@H](N)C[C@@H]2N)[C@H](O)[C@@H](O)[C@@H]1O [KANAMYCIN]	Not Active	Not Active	Not Active	Not Active	Not Active	Not Active	Not Active	Not Active	Not Active	Not Active	Not Active	Not Active	–	–
CC[C@H](C)C(=O)O[C@H]1C[C@@H](C)C=C2C=C[C@H](C)[C@H](CC[C@@H]3C[C@@H](O)CC(=O)O3)[C@H]21 [LOVASTATIN]	Not Active	Not Active	Not Active	Not Active	Not Active	Not Active	Not Active	Not Active	Not Active	Not Active	Not Active	Not Active	–	–
CC(C(=O)O)c1ccc(CC2CCCC2=O)cc1 (configuration not stated) [LOXOPROFEN]	Not Active	Not Active	Not Active	Not Active	Not Active	Not Active	Not Active	Not Active	Not Active	Not Active	Not Active	Not Active	–	–
Cc1cccc(Nc2ccccc2C(=O)O)c1C [MEFENAMIC ACID]	Not Active	Not Active	Not Active	Not Active	Not Active	Not Active	Not Active	Not Active	Not Active	Not Active	Not Active	Not Active	–	–
CC(=O)O[C@]1(C(C)=O)CC[C@H]2[C@@H]3C=C(C)C4=CC(=O)CC[C@]4(C)[C@H]3CC[C@@]21C [MEGESTROL ACETATE]	Not Active	Not Active	Not Active	Not Active	Not Active	Not Active	Not Active	Not Active	Not Active	Not Active	Not Active	Not Active	–	–
COc1ccccc1OCC(O)COC(N)=O (configuration not stated) [METHOCARBAMOL]	Not Active	Not Active	Not Active	Not Active	Not Active	Not Active	Not Active	Not Active	Not Active	Not Active	Not Active	Not Active	–	–
CN(Cc1cnc2nc(N)nc(N)c2n1)c1ccc(C(=O)N[C@@H](CCC(=O)O)C(=O)O)cc1 [METHOTREXATE]	Not Active	Not Active	Not Active	Not Active	Not Active	Not Active	Not Active	Not Active	Not Active	Not Active	Not Active	Not Active	–	–
COC(=O)c1ccccc1O [METHYL SALICYLATE]	Not Active	Not Active	Not Active	Not Active	Not Active	Not Active	Not Active	Not Active	Not Active	Not Active	Not Active	Not Active	–	–
COc1ccc2cc(CCC(C)=O)ccc2c1 [NABUMETONE]	Not Active	Not Active	Not Active	Not Active	Not Active	Not Active	Not Active	Not Active	Not Active	Not Active	Not Active	Not Active	–	–
O=C(O)c1cccnc1 [NIACIN]	Not Active	Not Active	Not Active	Not Active	Not Active	Not Active	Not Active	Not Active	Not Active	Not Active	Not Active	Not Active	–	–
CNC(=C[N+](=O)[O-])NCCSCc1csc(CN(C)C)n1 [NIZATIDINE]	Not Active	Not Active	Not Active	Not Active	Not Active	Not Active	Not Active	Not Active	Not Active	Not Active	Not Active	Not Active	–	–
C[C@]12C/C(=C/O)C(=O)C[C@@H]1CC[C@@H]1[C@@H]2CC[C@@]2(C)[C@H]1CC[C@]2(C)O [OXYMETHOLONE]	Not Active	Not Active	Not Active	Not Active	Not Active	Not Active	Not Active	Not Active	Not Active	Not Active	Not Active	Not Active	–	–
